PMC8380656, “The structure and flexibility analysis of the Arabidopsis synaptotagmin 1 reveal the basis of its regulation at membrane contact sites” (Life Science Alliance, 2021)

T1: SYT1C2A (Arabidopsis thaliana, UniProt Q9SKR2)
T1 construct: gene SYT1; C2A domain, residues K253-E397; pGEX6P1, GST tag cleaved with PreScission protease; expressed in E. coli Rosetta 2 (DE3) pLysS
T1 sequence (Q9SKR2 253-397): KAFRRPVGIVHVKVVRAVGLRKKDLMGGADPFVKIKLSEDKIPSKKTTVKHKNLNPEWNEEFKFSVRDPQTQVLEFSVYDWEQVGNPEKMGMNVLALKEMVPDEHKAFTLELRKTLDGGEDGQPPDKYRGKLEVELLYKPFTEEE

B1: SYT1-SMPC2A (Arabidopsis synaptotagmin 1, SMP and C2A domains, residues N34-E397) (domain or fragment, UniProt Q9SKR2 34-397, looked up)
chain: NDVKDPEIRSIADQDPKAMLRMLPEIPLWVKNPDFDRVDWINRFLEYMWPYLDKAICKTAKNIAKPIIEEQIPKYKIDSVEFETLTLGSLPPTFQGMKVYLTDEKELIMEPCLKWAANPNILVAIKAFGLKATVQVVDLQVFAQPRITLKPLVPSFPCFANIYVSLMEKPHVDFGLKLGGADLMSIPGLYRFVQEQIKDQVANMYLWPKTLVVPILDPAKAFRRPVGIVHVKVVRAVGLRKKDLMGGADPFVKIKLSEDKIPSKKTTVKHKNLNPEWNEEFKFSVRDPQTQVLEFSVYDWEQVGNPEKMGMNVLALKEMVPDEHKAFTLELRKTLDGGEDGQPPDKYRGKLEVELLYKPFTEEE
notes: Expressed from pGEX6P1; also called SMP2C2A; source: E. coli Rosetta 2 (DE3) pLysS, purified (Glutathione Sepharose 4B, GST cleaved with Precission protease, Superdex 200)

Target: the molecule itself
Experiment: SAXS (SEC-SAXS); 45 ul of SYT1SMPC2A at 6.6 mg ml^-1 injected onto Superdex 200 increase 3.2/300 at 20°C; 20 mM Tris pH 8, 100 mM NaCl, 5% glycerol, 2 mM DTT; molecular mass from the Porod volume
Conditions: not given

Molecule | stoichiometry N
B1 | 2

Target: T1, SYT1C2A
Experiment: thermal shift, label-free nanoDSF (Tycho NT.[…])
Type: binding
Conditions: 58 μM ligand, 5.8 μM protein, 20 μM EGTA, Tris-HCl pH 8.0; absolute inflexion temperature, unbound control 57.4 ± 0.5; polybasic site

SYT1C2A [°C] | Molecule
65.2 ± 0.4 | O=P(O)(O)O[C@H]1[C@H](OP(=O)(O)O)[C@@H](OP(=O)(O)O)[C@@H](O)[C@@H](O)[C@@H]1OP(=O)(O)O [IP(3,4,5,6), inositol 3,4,5,6-tetraphosphate]
59.4 ± 0.2 | O=P(O)(O)O[C@H]1[C@H](O)[C@@H](O)[C@H](OP(=O)(O)O)[C@@H](O)[C@H]1O [IP2, inositol 1,4-biphosphate]
62.6 ± 0.2 | O=P(O)(O)O[C@@H]1[C@@H](OP(=O)(O)O)[C@H](OP(=O)(O)O)[C@@H](O)[C@@H](O)[C@H]1OP(=O)(O)O [IP(1,4,5,6), inositol 1,4,5,6-tetraphosphate]
64.2 ± 0.1 | O=P(O)(O)O[C@H]1[C@H](O)[C@@H](O)[C@H](OP(=O)(O)O)[C@@H](OP(=O)(O)O)[C@H]1O [IP(1,3,4), inositol 1,3,4-trisphosphate]
62.60 ± 0.05 | O=P(O)(O)O[C@@H]1[C@H](O)[C@H](O)[C@@H](OP(=O)(O)O)[C@H](OP(=O)(O)O)[C@H]1O [IP3, inositol 1,4,5-trisphosphate]
